Patent US20240238299A1, “USE OF PYRROLOPYRIMIDINE COMPOUND” (GUANGZHOU JOYO PHARMATECH CO., LTD, priority 2021, published 2024)

System: MOG35-55-induced experimental autoimmune encephalomyelitis (EAE) mouse model
Assay: MOG35-55-induced EAE mouse model, clinical scoring and incidence
Type: in vivo, C57BL/6 mice
Details: for inhibition rate of AUC for clinical scoring: 14 days, vs vehicle control

CN(c1ncnc2[nH]ccc12)[C@@H]1CCc2cc(C#N)nn2C1 [Compound I]
1.40: EAE clinical scoring, Mean (G8, 20 mg/kg QD oral, day 17)
10%: incidence of EAE (G6, 10 mg/kg BID oral, day 20) | incidence of EAE (G7, 20 mg/kg BID oral, day 24) | incidence of EAE (G7, 20 mg/kg BID oral, day 25) | incidence of EAE (G7, 20 mg/kg BID oral, day 26) | incidence of EAE (G7, 20 mg/kg BID oral, day 27)
0.70: EAE clinical scoring, Mean (G8, 20 mg/kg QD oral, day 21)
50%: incidence of EAE (G5, 3 mg/kg BID oral, day 24) | incidence of EAE (G5, 3 mg/kg BID oral, day 25) | incidence of EAE (G5, 3 mg/kg BID oral, day 26) | incidence of EAE (G6, 10 mg/kg BID oral, day 15) | incidence of EAE (G6, 10 mg/kg BID oral, day 16) | incidence of EAE (G7, 20 mg/kg BID oral, day 14) | incidence of EAE (G8, 20 mg/kg QD oral, day 14) | incidence of EAE (G8, 20 mg/kg QD oral, day 20) | incidence of EAE (G8, 20 mg/kg QD oral, day 21)
0.30: EAE clinical scoring, Mean (G6, 10 mg/kg BID oral, day 20) | EAE clinical scoring, Mean (G6, 10 mg/kg BID oral, day 21) | EAE clinical scoring, Mean (G6, 10 mg/kg BID oral, day 22) | EAE clinical scoring, Mean (G6, 10 mg/kg BID oral, day 27) | EAE clinical scoring, Mean (G7, 20 mg/kg BID oral, day 13) | EAE clinical scoring, Mean (G7, 20 mg/kg BID oral, day 24) | EAE clinical scoring, Mean (G7, 20 mg/kg BID oral, day 25) | EAE clinical scoring, Mean (G7, 20 mg/kg BID oral, day 26) | EAE clinical scoring, Mean (G7, 20 mg/kg BID oral, day 27) | EAE clinical scoring, Mean (G8, 20 mg/kg QD oral, day 24) | EAE clinical scoring, Mean (G8, 20 mg/kg QD oral, day 25) | EAE clinical scoring, Mean (G8, 20 mg/kg QD oral, day 26) | EAE clinical scoring, Mean (G8, 20 mg/kg QD oral, day 27)
1.10: EAE clinical scoring, Mean (G5, 3 mg/kg BID oral, day 21) | EAE clinical scoring, Mean (G5, 3 mg/kg BID oral, day 22) | EAE clinical scoring, Mean (G7, 20 mg/kg BID oral, day 18) | EAE clinical scoring, Mean (G7, 20 mg/kg BID oral, day 19) | EAE clinical scoring, Mean (G8, 20 mg/kg QD oral, day 15) | EAE clinical scoring, Mean (G8, 20 mg/kg QD oral, day 19)
0.80: EAE clinical scoring, Mean (G5, 3 mg/kg BID oral, day 24) | EAE clinical scoring, Mean (G5, 3 mg/kg BID oral, day 25) | EAE clinical scoring, Mean (G5, 3 mg/kg BID oral, day 26) | EAE clinical scoring, Mean (G7, 20 mg/kg BID oral, day 15) | EAE clinical scoring, Mean (G7, 20 mg/kg BID oral, day 21) | EAE clinical scoring, Mean (G8, 20 mg/kg QD oral, day 20)
90%: incidence of EAE (G5, 3 mg/kg BID oral, day 18)
30%: incidence of EAE (G5, 3 mg/kg BID oral, day 27) | incidence of EAE (G6, 10 mg/kg BID oral, day 23) | incidence of EAE (G6, 10 mg/kg BID oral, day 24) | incidence of EAE (G6, 10 mg/kg BID oral, day 25) | incidence of EAE (G6, 10 mg/kg BID oral, day 26) | incidence of EAE (G6, 10 mg/kg BID oral, day 27) | incidence of EAE (G7, 20 mg/kg BID oral, day 13) | incidence of EAE (G7, 20 mg/kg BID oral, day 22) | incidence of EAE (G7, 20 mg/kg BID oral, day 23) | incidence of EAE (G8, 20 mg/kg QD oral, day 24) | incidence of EAE (G8, 20 mg/kg QD oral, day 25) | incidence of EAE (G8, 20 mg/kg QD oral, day 26) | incidence of EAE (G8, 20 mg/kg QD oral, day 27)
0.40: EAE clinical scoring, Mean (G5, 3 mg/kg BID oral, day 14) | EAE clinical scoring, Mean (G6, 10 mg/kg BID oral, day 14) | EAE clinical scoring, Mean (G6, 10 mg/kg BID oral, day 19) | EAE clinical scoring, Mean (G6, 10 mg/kg BID oral, day 23) | EAE clinical scoring, Mean (G6, 10 mg/kg BID oral, day 24) | EAE clinical scoring, Mean (G6, 10 mg/kg BID oral, day 25) | EAE clinical scoring, Mean (G6, 10 mg/kg BID oral, day 26) | EAE clinical scoring, Mean (G8, 20 mg/kg QD oral, day 22) | EAE clinical scoring, Mean (G8, 20 mg/kg QD oral, day 23)
1.30: EAE clinical scoring, Mean (G5, 3 mg/kg BID oral, day 20) | EAE clinical scoring, Mean (G8, 20 mg/kg QD oral, day 16) | EAE clinical scoring, Mean (G8, 20 mg/kg QD oral, day 18)
0.20: EAE clinical scoring, Mean (G5, 3 mg/kg BID oral, day 13) | EAE clinical scoring, Mean (G6, 10 mg/kg BID oral, day 13) | EAE clinical scoring, Mean (G8, 20 mg/kg QD oral, day 13)
70%: incidence of EAE (G5, 3 mg/kg BID oral, day 16) | incidence of EAE (G5, 3 mg/kg BID oral, day 20) | incidence of EAE (G7, 20 mg/kg BID oral, day 17) | incidence of EAE (G7, 20 mg/kg BID oral, day 20) | incidence of EAE (G8, 20 mg/kg QD oral, day 15) | incidence of EAE (G8, 20 mg/kg QD oral, day 16) | incidence of EAE (G8, 20 mg/kg QD oral, day 18) | incidence of EAE (G8, 20 mg/kg QD oral, day 19)
44%: inhibition rate of AUC for clinical scoring (3 mg/kg BID oral)
63%: inhibition rate of AUC for clinical scoring (20 mg/kg BID oral)
77%: inhibition rate of AUC for clinical scoring (10 mg/kg BID oral)
80%: incidence of EAE (G5, 3 mg/kg BID oral, day 17) | incidence of EAE (G7, 20 mg/kg BID oral, day 18) | incidence of EAE (G7, 20 mg/kg BID oral, day 19) | incidence of EAE (G8, 20 mg/kg QD oral, day 17)
0.90: EAE clinical scoring, Mean (G5, 3 mg/kg BID oral, day 16) | EAE clinical scoring, Mean (G7, 20 mg/kg BID oral, day 16) | EAE clinical scoring, Mean (G7, 20 mg/kg BID oral, day 20)
100%: incidence of EAE (G5, 3 mg/kg BID oral, day 19)
60%: inhibition rate of AUC for clinical scoring (20 mg/kg QD oral) | incidence of EAE (G5, 3 mg/kg BID oral, day 15) | incidence of EAE (G5, 3 mg/kg BID oral, day 21) | incidence of EAE (G5, 3 mg/kg BID oral, day 22) | incidence of EAE (G5, 3 mg/kg BID oral, day 23) | incidence of EAE (G7, 20 mg/kg BID oral, day 15) | incidence of EAE (G7, 20 mg/kg BID oral, day 16) | incidence of EAE (G7, 20 mg/kg BID oral, day 21)
0%: incidence of EAE (G5, 3 mg/kg BID oral, day 0) | incidence of EAE (G5, 3 mg/kg BID oral, day 2) | incidence of EAE (G5, 3 mg/kg BID oral, day 4) | incidence of EAE (G5, 3 mg/kg BID oral, day 7) | incidence of EAE (G5, 3 mg/kg BID oral, day 9) | incidence of EAE (G5, 3 mg/kg BID oral, day 11) | incidence of EAE (G5, 3 mg/kg BID oral, day 12) | incidence of EAE (G6, 10 mg/kg BID oral, day 0) | incidence of EAE (G6, 10 mg/kg BID oral, day 2) | incidence of EAE (G6, 10 mg/kg BID oral, day 4) | incidence of EAE (G6, 10 mg/kg BID oral, day 7) | incidence of EAE (G6, 10 mg/kg BID oral, day 9) | incidence of EAE (G6, 10 mg/kg BID oral, day 11) | incidence of EAE (G6, 10 mg/kg BID oral, day 12) | incidence of EAE (G7, 20 mg/kg BID oral, day 0) | incidence of EAE (G7, 20 mg/kg BID oral, day 2) | incidence of EAE (G7, 20 mg/kg BID oral, day 4) | incidence of EAE (G7, 20 mg/kg BID oral, day 7) | incidence of EAE (G7, 20 mg/kg BID oral, day 9) | incidence of EAE (G7, 20 mg/kg BID oral, day 11) | incidence of EAE (G7, 20 mg/kg BID oral, day 12) | incidence of EAE (G8, 20 mg/kg QD oral, day 0) | incidence of EAE (G8, 20 mg/kg QD oral, day 2) | incidence of EAE (G8, 20 mg/kg QD oral, day 4) | incidence of EAE (G8, 20 mg/kg QD oral, day 7) | incidence of EAE (G8, 20 mg/kg QD oral, day 9) | incidence of EAE (G8, 20 mg/kg QD oral, day 11) | incidence of EAE (G8, 20 mg/kg QD oral, day 12)
1.90: EAE clinical scoring, Mean (G5, 3 mg/kg BID oral, day 18) | EAE clinical scoring, Mean (G5, 3 mg/kg BID oral, day 19)
40%: incidence of EAE (G5, 3 mg/kg BID oral, day 14) | incidence of EAE (G6, 10 mg/kg BID oral, day 14) | incidence of EAE (G6, 10 mg/kg BID oral, day 17) | incidence of EAE (G6, 10 mg/kg BID oral, day 18) | incidence of EAE (G8, 20 mg/kg QD oral, day 22) | incidence of EAE (G8, 20 mg/kg QD oral, day 23)
20%: incidence of EAE (G5, 3 mg/kg BID oral, day 13) | incidence of EAE (G6, 10 mg/kg BID oral, day 13) | incidence of EAE (G6, 10 mg/kg BID oral, day 19) | incidence of EAE (G6, 10 mg/kg BID oral, day 21) | incidence of EAE (G6, 10 mg/kg BID oral, day 22) | incidence of EAE (G8, 20 mg/kg QD oral, day 13)
1.50: EAE clinical scoring, Mean (G5, 3 mg/kg BID oral, day 17)
0.60: EAE clinical scoring, Mean (G5, 3 mg/kg BID oral, day 15) | EAE clinical scoring, Mean (G5, 3 mg/kg BID oral, day 27) | EAE clinical scoring, Mean (G6, 10 mg/kg BID oral, day 16) | EAE clinical scoring, Mean (G6, 10 mg/kg BID oral, day 18) | EAE clinical scoring, Mean (G7, 20 mg/kg BID oral, day 14) | EAE clinical scoring, Mean (G8, 20 mg/kg QD oral, day 14)
3 mg/kg: effective dose starting at (twice daily (BID), oral, EAE clinical symptoms)
1.00: EAE clinical scoring, Mean (G5, 3 mg/kg BID oral, day 23) | EAE clinical scoring, Mean (G7, 20 mg/kg BID oral, day 17)
0.00: EAE clinical scoring, Mean (G5, 3 mg/kg BID oral, day 0) | EAE clinical scoring, Mean (G5, 3 mg/kg BID oral, day 2) | EAE clinical scoring, Mean (G5, 3 mg/kg BID oral, day 4) | EAE clinical scoring, Mean (G5, 3 mg/kg BID oral, day 7) | EAE clinical scoring, Mean (G5, 3 mg/kg BID oral, day 9) | EAE clinical scoring, Mean (G5, 3 mg/kg BID oral, day 11) | EAE clinical scoring, Mean (G5, 3 mg/kg BID oral, day 12) | EAE clinical scoring, Mean (G6, 10 mg/kg BID oral, day 0) | EAE clinical scoring, Mean (G6, 10 mg/kg BID oral, day 2) | EAE clinical scoring, Mean (G6, 10 mg/kg BID oral, day 4) | EAE clinical scoring, Mean (G6, 10 mg/kg BID oral, day 7) | EAE clinical scoring, Mean (G6, 10 mg/kg BID oral, day 9) | EAE clinical scoring, Mean (G6, 10 mg/kg BID oral, day 11) | EAE clinical scoring, Mean (G6, 10 mg/kg BID oral, day 12) | EAE clinical scoring, Mean (G7, 20 mg/kg BID oral, day 0) | EAE clinical scoring, Mean (G7, 20 mg/kg BID oral, day 2) | EAE clinical scoring, Mean (G7, 20 mg/kg BID oral, day 4) | EAE clinical scoring, Mean (G7, 20 mg/kg BID oral, day 7) | EAE clinical scoring, Mean (G7, 20 mg/kg BID oral, day 9) | EAE clinical scoring, Mean (G7, 20 mg/kg BID oral, day 11) | EAE clinical scoring, Mean (G7, 20 mg/kg BID oral, day 12) | EAE clinical scoring, Mean (G8, 20 mg/kg QD oral, day 0) | EAE clinical scoring, Mean (G8, 20 mg/kg QD oral, day 2) | EAE clinical scoring, Mean (G8, 20 mg/kg QD oral, day 4) | EAE clinical scoring, Mean (G8, 20 mg/kg QD oral, day 7) | EAE clinical scoring, Mean (G8, 20 mg/kg QD oral, day 9) | EAE clinical scoring, Mean (G8, 20 mg/kg QD oral, day 11) | EAE clinical scoring, Mean (G8, 20 mg/kg QD oral, day 12)
0.50: EAE clinical scoring, Mean (G6, 10 mg/kg BID oral, day 15) | EAE clinical scoring, Mean (G6, 10 mg/kg BID oral, day 17) | EAE clinical scoring, Mean (G7, 20 mg/kg BID oral, day 22) | EAE clinical scoring, Mean (G7, 20 mg/kg BID oral, day 23)
